According to patent publication US20040191115A1 (priority 2003, published 2004):
Values joined by “and” are separate entries in the source; they are usually repeats but may differ in a detail not shown here. Identical values can stand only once. Like-named read-outs stand apart in the source and are kept apart here.

System: bacillus atrophaeus spores
Conditions: 2.59 percent H2O2, slow speed, without cartons; for average count of colony forming units for the time period / log of average count for the time period: mean of samples
Method: Studies were conducted to determine the microbial eradication on mandrels 34 that were subjected to vaporized sterilant introduced at the heaters 40. […] The efficacy of the mandrel sterilization was studied for both the mandrel caps 35 and the mandrel side tubes 37 (see FIG. 3).
Each of the studies was further carried out using a testing media of bacillus atrophaeus spores for inoculating the mandrels. The mandrels were inoculated by spraying, using an aerating spray bottle having a solution with a concentration of about 7 log bacillus spores. The mandrels were then allowed to air dry. Controls were swabbed using cotton swabs to assure that the mandrels were properly inoculated. Following the machine operating period of the test, the mandrels were swabbed and the bacillus spores transferred to an agar media for incubation of the spores (at 32° C. for 48 hours) and subsequent recovery.
The data was collected by taking swab samples at the mandrel cap 35 (represented by C in the Table) and on the mandrel side tubes 37 (represented by T in the Table).

[1] = time 0 min, swab site C (mandrel cap)
[2] = time 0 min, swab site T (mandrel side tubes)
[3] = time 15 min, swab site C (mandrel cap)
[4] = time 15 min, swab site T (mandrel side tubes)
[5] = time 30 min, swab site C (mandrel cap)
[6] = time 30 min, swab site T (mandrel side tubes)
[7] = time 45 min, swab site C (mandrel cap)
[8] = time 45 min, swab site T (mandrel side tubes)
[9] = time 60 min, swab site C (mandrel cap)
[10] = time 60 min, swab site T (mandrel side tubes)

## OO [hydrogen peroxide]
Time 0 min, cap
  average count of colony forming units for the time period: 4.82E+05 CFU/mandrel
  log of average count for the time period: 5.68 log
Time 0 min, side tubes
  average count of colony forming units for the time period: 6.67E+05 CFU/mandrel
  log of average count for the time period: 5.82 log
[1]
  Average CFU/mL: 1.19E+05 CFU/mL and 1.23E+05 CFU/mL
  Average CFU/mandrel: 4.74E+05 CFU/mandrel and 4.90E+05 CFU/mandrel
  Log (of Average CFU/mandrel): 5.68 Log and 5.69 Log
  Result 1 CFU/mL: 1.24E+05 CFU/mL and 1.19E+05 CFU/mL
  Result #2 CFU/mL: 1.13E+05 CFU/mL and 1.26E+05 CFU/mL
[2]
  Log (of Average CFU/mandrel): 5.95 Log and 5.65 Log
  Result #2 CFU/mL: 2.09E+05 CFU/mL and 1.17E+05 CFU/mL
Time 15 min, cap
  average count of colony forming units for the time period: 3.47E+05 CFU/mandrel
  log of average count for the time period: 5.54 log
Time 15 min, side tubes
  average count of colony forming units for the time period: 4.02E+05 CFU/mandrel
  log of average count for the time period: 5.60 log
[3]
  Average CFU/mandrel: 2.62E+05 CFU/mandrel and 4.32E+05 CFU/mandrel
  Log (of Average CFU/mandrel): 5.42 Log and 5.64 Log
[4]
  Average CFU/mL: 1.01E+05 CFU/mL and 1.00E+05 CFU/mL
  Average CFU/mandrel: 4.04E+05 CFU/mandrel and 4.00E+05 CFU/mandrel
  Log (of Average CFU/mandrel): 5.61 Log and 5.60 Log
  Result 1 CFU/mL: 1.03E+05 CFU/mL and 1.06E+05 CFU/mL
  Result #2 CFU/mL: 9.90E+04 CFU/mL and 9.40E+04 CFU/mL
Time 15 min relative to time zero, cap
  Log Red. (Avg): 0.14 Log
Time 15 min relative to time zero, side tubes
  Log Red. (Avg): 0.22 Log
Time 30 min, cap
  average count of colony forming units for the time period: 3.82E+05 CFU/mandrel
  log of average count for the time period: 5.58 log
Time 30 min, side tubes
  average count of colony forming units for the time period: 4.34E+05 CFU/mandrel
  log of average count for the time period: 5.64 log
[5]
  Average CFU/mandrel: 2.66E+05 CFU/mandrel and 4.98E+05 CFU/mandrel
  Log (of Average CFU/mandrel): 5.42 Log and 5.70 Log
[6]
  Average CFU/mandrel: 4.74E+05 CFU/mandrel and 3.94E+05 CFU/mandrel
  Log (of Average CFU/mandrel): 5.68 Log and 5.60 Log
  Result #2 CFU/mL: 1.15E+05 CFU/mL and 1.08E+05 CFU/mL
Time 30 min relative to time zero, cap
  Log Red. (Avg): 0.10 Log
Time 30 min relative to time zero, side tubes
  Log Red. (Avg): 0.19 Log
Time 45 min, cap
  average count of colony forming units for the time period: 6.31E+05 CFU/mandrel
  log of average count for the time period: 5.80 log
Time 45 min, side tubes
  average count of colony forming units for the time period: 8.04E+05 CFU/mandrel
  log of average count for the time period: 5.91 log
[7]
  Average CFU/mL: 1.43E+05 CFU/mL and 1.73E+05 CFU/mL
  Average CFU/mandrel: 5.72E+05 CFU/mandrel and 6.90E+05 CFU/mandrel
  Log (of Average CFU/mandrel): 5.76 Log and 5.84 Log
  Result 1 CFU/mL: 1.51E+05 CFU/mL and 1.64E+05 CFU/mL
  Result #2 CFU/mL: 1.35E+05 CFU/mL and 1.81E+05 CFU/mL
[8]
  Average CFU/mL: 1.51E+05 CFU/mL and 2.52E+05 CFU/mL
  Log (of Average CFU/mandrel): 5.78 Log and 6.00 Log
  Result 1 CFU/mL: 1.67E+05 CFU/mL and 2.49E+05 CFU/mL
  Result #2 CFU/mL: 1.34E+05 CFU/mL and 2.54E+05 CFU/mL
Time 45 min relative to time zero, cap
  Log Red. (Avg): −0.12 Log
Time 45 min relative to time zero, side tubes
  Log Red. (Avg): −0.08 Log
Time 60 min, cap
  average count of colony forming units for the time period: 3.24E+05 CFU/mandrel
  log of average count for the time period: 5.51 log
Time 60 min, side tubes
  average count of colony forming units for the time period: 6.01E+05 CFU/mandrel
  log of average count for the time period: 5.78 log
[9]
  Average CFU/mL: 7.35E+04 CFU/mL and 8.85E+04 CFU/mL
  Average CFU/mandrel: 2.94E+05 CFU/mandrel and 3.54E+05 CFU/mandrel
  Log (of Average CFU/mandrel): 5.47 Log and 5.55 Log
  Result 1 CFU/mL: 6.30E+04 CFU/mL and 8.50E+04 CFU/mL
  Result #2 CFU/mL: 8.40E+04 CFU/mL and 9.20E+04 CFU/mL
[10]
  Average CFU/mL: 1.87E+05 CFU/mL and 1.14E+05 CFU/mL
  Average CFU/mandrel: 7.46E+05 CFU/mandrel and 4.56E+05 CFU/mandrel
  Log (of Average CFU/mandrel): 5.87 Log and 5.66 Log
  Result 1 CFU/mL: 2.10E+05 CFU/mL and 1.20E+05 CFU/mL
  Result #2 CFU/mL: 1.63E+05 CFU/mL and 1.08E+05 CFU/mL
Time 60 min relative to time zero, cap
  Log Red. (Avg): 0.17 Log
Time 60 min relative to time zero, side tubes
  Log Red. (Avg): 0.05 Log
